What was measured:
[1] = system: mice with pulmonary fibrosis; assay: Weight measurement in bleomycin pulmonary fibrosis model (Experimental Example 2); assay type: in vivo, C57BL6J mice; details: compared with the model group; bleomycin 3 mg/kg intratracheal, treatment from week 1 for two weeks; FIG. 1
From the text: Establishment of pulmonary fibrosis model: 6-8 week old C57BL6J mice were selected and acclimatized for one week. In the model group, apremilast inhalation (Example 2) treatment group, roflumilast inhalation (Example 5) treatment group, crisaborole inhalation (Example 3) treatment group, apremilast oral administration treatment group (Comparative Example 1), and nintedanib oral administration treatment group (Comparative Example 2, nintedanib is a commonly used drug for treating IPF in the prior art), the animals were treated with bleomycin solution (3 mg/kg/50 μl) via intratracheal instillation on the first day, and in the control group, the animals were treated with an equal volume of physiological saline. Treatment started one week later and lasted for two weeks, and a total of three weeks was required. […]
(§1) Weight measurement: The weight of mice was measured and recorded at a fixed time on the morning each week, and the weight changes of mice in each group at different times were observed.
Statistical analysis: The results were statistically analyzed using Graphpad Prism 9.0 software for the experimental data of each group. […] The measurement data were expressed as mean #standard deviation (mean±SD). […]

[2] = system: mice with pulmonary fibrosis; assay: MASSON staining of lungs in bleomycin pulmonary fibrosis model (Experimental Example 2); assay type: in vivo, C57BL6J mice; details: FIG. 2; for collagen fibers / collagen deposition (MASSON staining): compared with the model group; for pathological changes in the lungs (MASSON staining): inhalation groups compared with model group, oral groups compared with inhalation groups
From the text: (§2) Establishment of pulmonary fibrosis model: 6-8 week old C57BL6J mice were selected and acclimatized for one week. In the model group, apremilast inhalation (Example 2) treatment group, roflumilast inhalation (Example 5) treatment group, crisaborole inhalation (Example 3) treatment group, apremilast oral administration treatment group (Comparative Example 1), and nintedanib oral administration treatment group (Comparative Example 2, nintedanib is a commonly used drug for treating IPF in the prior art), the animals were treated with bleomycin solution (3 mg/kg/50 μl) via intratracheal instillation on the first day, and in the control group, the animals were treated with an equal volume of physiological saline. Treatment started one week later and lasted for two weeks, and a total of three weeks was required. The bleomycin solution was prepared by mixing bleomycin dry powder with sterile PBS to reach the required concentration (non-surgical method of intratracheal injection of bleomycin into mouse lungs: the mice were anesthetized with isoflurane and suspended on a surgical stent at a 70° angle. Bleomycin was administered via intratracheal instillation using a 200 μl pipette).
(§3) HE staining and MASSON staining: Mouse lung tissue was fixed in 4% paraformaldehyde for 24 h, rinsed with running water overnight, dehydrated with alcohol conventionally, embedded in paraffin, cut into 5 μm sections, and stained with HE and MASSON respectively. After clearing with xylene, the sections were mounted with neutral resin. The pathological changes in the lungs were observed and photographed under an optical microscope.

[3] = system: mice with pulmonary fibrosis; assay: HE staining of lungs in bleomycin pulmonary fibrosis model (Experimental Example 2); assay type: in vivo, C57BL6J mice; details: FIG. 3; for alveolar structure (HE staining): compared with the model group
From the text: as §2, §3

[4] = system: mice with pulmonary fibrosis; assay: Detection of MDA and HYP content in the lungs, bleomycin pulmonary fibrosis model (Experimental Example 2); assay type: in vivo, C57BL6J mice; details: compared with model group; FIG. 4
From the text: as §2
Detection of malondialdehyde (MDA) and hydroxyproline (HYP) content in the lungs: An appropriate amount of lung tissue was taken from the mice in each group, homogenized (the ground tissue was centrifuged at 3000 rpm for 10 min and the supernatant was taken for later use), and the MDA and HYP content in the lungs was detected according to the kit instructions. MDA stands for malondialdehyde, a product of lipid peroxidation that reflects oxidative damage, while HYP stands for hydroxyproline level, which reflects the level of pulmonary fibrosis.
Statistical analysis: The results were statistically analyzed using Graphpad Prism 9.0 software for the experimental data of each group. All experimental data underwent normality test. The measurement data were expressed as mean #standard deviation (mean±SD). One-way ANOVA was used to compare the means of multiple groups of samples. P<0.05 is considered statistically significant.

[5] = system: mice with pulmonary fibrosis; assay: Weight measurement in bleomycin pulmonary fibrosis model (Experimental Example 4); assay type: in vivo, C57/BL6J mice; details: FIGS. 5 and 6
From the text: (§4) Establishment of pulmonary fibrosis model: 6-8 week old C57/BL6J mice were selected and acclimatized for one week. The mice were divided into blank control group, model group, apremilast inhalation (Example 2) treatment group, roflumilast inhalation (Example 5) treatment group, crisaborole inhalation (Example 3) treatment group, ibudilast inhalation (Example 10) treatment group, difamilast inhalation (Example 9) treatment group, ibudilast oral administration (Comparative Example 3) treatment group, difamilast oral administration (Comparative Example 4) treatment group, and nintedanib oral administration (Comparative Example 2, nintedanib is a commonly used drug for treating IPF in the prior art) treatment group, with n=8 in each group. On the first day, the mice in the model group and the treatment groups were administered bleomycin solution (3 mg/kg/50 μl) via tracheal instillation, while the control group was treated with an equal volume of physiological saline. Treatment began in each treatment group one week later and lasted for two weeks, and a total of three weeks was required. The bleomycin solution was prepared by mixing bleomycin dry powder with sterile PBS to reach the required concentration (non-surgical method of intratracheal injection of bleomycin into mouse lungs: the mice were anesthetized by inhaling isoflurane, and suspended on a surgical stent at a 70° angle, and bleomycin was administered via intratracheal instillation using a 200 μl pipette).
as §1
(§5) Statistical analysis: The results were statistically analyzed using Graphpad Prism 9.0 software for the experimental data of each group. All experimental data underwent normality test. The measurement data were expressed as mean±standard deviation (mean±SD). One-way ANOVA was used to compare the means of multiple groups of samples. P<0.05 is considered statistically significant.

[6] = system: mice with pulmonary fibrosis; assay: MASSON staining of lungs in bleomycin pulmonary fibrosis model (Experimental Example 4); assay type: in vivo, C57/BL6J mice; details: FIG. 7; for collagen fibers / collagen deposition (MASSON staining): compared with the model group; for lung damage / pathological changes (MASSON staining): inhalation groups compared with model group, oral groups compared with inhalation groups
From the text: as §4
(§6) HE staining and MASSON staining: Mouse lung tissue was fixed in 4% paraformaldehyde for 24 h, rinsed with running water overnight, dehydrated with alcohol as usual, embedded in paraffin, then serially cut into sections (5 μm), and stained with HE and MASSON respectively. After clearing with xylene, the sections were mounted with neutral resin. The sections were observed and photographed under an optical microscope.

[7] = system: mice with pulmonary fibrosis; assay: HE staining of lungs in bleomycin pulmonary fibrosis model (Experimental Example 4); assay type: in vivo, C57/BL6J mice; details: FIG. 8; for alveolar structure (HE staining): compared with the model group
From the text: as §4, §6

[8] = system: mice with pulmonary fibrosis; assay: Detection of MDA and HYP content in the lungs, bleomycin pulmonary fibrosis model (Experimental Example 4); assay type: in vivo, C57/BL6J mice; details: compared with model group; FIG. 9
From the text: as §4
Detection of malondialdehyde (MDA) and hydroxyproline (HYP) content in the lungs: An appropriate amount of lung tissue was taken from the mice in each group, homogenized (the ground tissue was centrifuged at 3000 rpm for 10 min and the supernatant was taken for later use), and the MDA and HYP content in the lungs was detected according to the kit instructions (MDA stands for malondialdehyde, a product of lipid peroxidation that reflects oxidative damage; HYP (hydroxyproline) level reflects the degree of fibrotic deposition in the lungs).
as §5

[9] = 14th day compared to the 7th day after model establishment

Compound: CCOc1cc([C@@H](CS(C)(=O)=O)N2C(=O)c3cccc(NC(C)=O)c3C2=O)ccc1OC [Comparative Example 1, apremilast]
- weight recovery [1]: significant weight recovery
- collagen fibers / collagen deposition (MASSON staining) [2]: reduced collagen deposition
- pathological changes in the lungs (MASSON staining) [2]: slightly thickened alveolar interstitium and a few visible collagen fibers
- inflammatory cell infiltration (HE staining) [3]: a few inflammatory cell infiltrations
- alveolar structure (HE staining) [3]: improved alveolar structure
- HYP content in the lungs (collagen deposition) [4]: slight tendency to alleviate MDA and HYP in the lungs, but the results were not statistically significant
- MDA content in the lungs (oxidative stress level) [4]: slight tendency to alleviate MDA and HYP in the lungs, but the results were not statistically significant
- weight recovery [5, 9]: significant weight recovery
- weight recovery ([5]; compared with the model group): significant weight recovery
- collagen fibers / collagen deposition (MASSON staining) [6]: reduced collagen deposition
- lung damage / pathological changes (MASSON staining) [6]: slightly thickened alveolar interstitium and a few visible collagen fibers
- inflammatory cell infiltration (HE staining) [7]: a few inflammatory cell infiltrations
- alveolar structure (HE staining) [7]: improved the alveolar structure
- HYP content in the lungs (collagen deposition) [8]: slight downward trend, but this did not have statistical significance
- MDA content in the lungs (oxidative stress level) [8]: slight downward trend, but this did not have statistical significance

Compound: COC(=O)c1ccc2c(c1)NC(=O)/C2=C(\Nc1ccc(N(C)C(=O)CN2CCN(C)CC2)cc1)c1ccccc1 [Comparative Example 2, nintedanib]
- weight recovery [1]: no significant difference in weight recovery
- collagen fibers / collagen deposition (MASSON staining) [2]: reduced collagen deposition
- pathological changes in the lungs (MASSON staining) [2]: slightly thickened alveolar interstitium and a few visible collagen fibers
- inflammatory cell infiltration (HE staining) [3]: a few inflammatory cell infiltrations
- alveolar structure (HE staining) [3]: improved alveolar structure
- HYP content in the lungs (collagen deposition) [4]: slight tendency to alleviate MDA and HYP in the lungs, but the results were not statistically significant
- MDA content in the lungs (oxidative stress level) [4]: slight tendency to alleviate MDA and HYP in the lungs, but the results were not statistically significant
- weight recovery [5, 9]: did not show significant body recovery
- weight recovery ([5]; compared with the model group): no significant difference in weight recovery
- collagen fibers / collagen deposition (MASSON staining) [6]: reduced collagen deposition
- lung damage / pathological changes (MASSON staining) [6]: slightly thickened alveolar interstitium and a few visible collagen fibers
- inflammatory cell infiltration (HE staining) [7]: a few inflammatory cell infiltrations
- alveolar structure (HE staining) [7]: improved the alveolar structure
- HYP content in the lungs (collagen deposition) [8]: slight downward trend, but this did not have statistical significance
- MDA content in the lungs (oxidative stress level) [8]: slight downward trend, but this did not have statistical significance

Compound: CCOc1ccccc1C(=O)NCc1coc(-c2ccc(OC(F)F)c(OC(C)C)c2)n1 [Comparative Example 4, difamilast]
- weight recovery [5, 9]: significant weight recovery
- weight recovery ([5]; compared with the model group): significant weight recovery
- collagen fibers / collagen deposition (MASSON staining) [6]: reduced collagen deposition
- lung damage / pathological changes (MASSON staining) [6]: slightly thickened alveolar interstitium and a few visible collagen fibers
- inflammatory cell infiltration (HE staining) [7]: a few inflammatory cell infiltrations
- alveolar structure (HE staining) [7]: improved the alveolar structure
- HYP content in the lungs (collagen deposition) [8]: slight downward trend, but this did not have statistical significance
- MDA content in the lungs (oxidative stress level) [8]: slight downward trend, but this did not have statistical significance
